# Assay results reported in patent US20250325677A1, “STAT6 DEGRADERS” (Gilead Sciences, Inc., priority 2024, published 2025).
# Target: STAT6 (Homo sapiens (Human), UniProt P42226)
# Experiment: STAT6 degrader assay (HiBiT, HeLa LgBiT clone 4.14)
# Assay type: cell-based
# Conditions: HeLa LgBiT clone 4.14, 4-24 h; for DC50: geometric mean, given for compounds with >80% Emax, read-out: STAT6 degradation DC50; for Emax: read-out: STAT6 degradation Emax (%)
# How it was run: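 DC50 (nM) comes from luminescence of non-degraded STAT6 read 0.5 h after Nano-GLO addition, following 4-24 h compound exposure at 37° C. Cells were HeLa clone 4.14 expressing LgBiT with a CRISPR HiBiT tag on endogenous STAT6; 50 μM terfenadine set full degradation.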
# Chain of STAT6 (P42226 whole entry): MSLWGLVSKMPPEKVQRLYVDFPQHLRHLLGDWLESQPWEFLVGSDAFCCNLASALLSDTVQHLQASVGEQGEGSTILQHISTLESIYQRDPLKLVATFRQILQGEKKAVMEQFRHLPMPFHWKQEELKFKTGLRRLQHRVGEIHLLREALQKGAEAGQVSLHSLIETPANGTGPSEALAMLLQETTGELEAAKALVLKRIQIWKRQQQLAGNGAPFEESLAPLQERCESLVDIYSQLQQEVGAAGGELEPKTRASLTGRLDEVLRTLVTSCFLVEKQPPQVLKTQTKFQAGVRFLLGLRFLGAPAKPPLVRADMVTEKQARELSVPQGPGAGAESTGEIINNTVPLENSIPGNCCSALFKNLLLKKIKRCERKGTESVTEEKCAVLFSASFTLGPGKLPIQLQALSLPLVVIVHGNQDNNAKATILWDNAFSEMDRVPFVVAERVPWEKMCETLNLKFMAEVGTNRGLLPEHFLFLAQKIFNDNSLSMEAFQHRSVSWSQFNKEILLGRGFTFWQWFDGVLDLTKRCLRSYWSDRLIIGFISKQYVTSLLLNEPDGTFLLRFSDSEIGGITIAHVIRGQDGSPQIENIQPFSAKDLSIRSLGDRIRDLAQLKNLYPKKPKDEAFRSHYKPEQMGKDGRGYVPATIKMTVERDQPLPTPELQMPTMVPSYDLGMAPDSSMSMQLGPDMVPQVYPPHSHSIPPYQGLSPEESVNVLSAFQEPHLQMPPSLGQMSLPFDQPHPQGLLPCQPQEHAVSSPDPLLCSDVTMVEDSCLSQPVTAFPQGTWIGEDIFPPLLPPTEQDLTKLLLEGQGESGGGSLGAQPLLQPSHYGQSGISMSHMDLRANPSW
DC50,Emax,SMILES
,50 to 60%,"Cn1c(CN2CCC(c3ccc(C(=O)N4CCC(CN5CCN(Cc6cccc7c6n(C)c(=O)n7C6CCC(=O)NC6=O)CC5)CC4)cc3)CC2)cc2c(-c3ccc4[nH]ncc4c3)ccnc21 (centres unmarked) [Example 3i1, 3-(4-((4-((1-(4-(1-((4-(1H-indazol-5-yl)-1-methyl-1H-pyrrolo[2,3-b]pyridin-2-yl)methyl)-piperidin-4-yl)benzoyl)piperidin-4-yl)methyl)piperazin-1-yl)methyl)-3-methyl-2-oxo-2,3-dihydro-1H-benzo[d]imidazol-1-yl)piperidine-2,6-dione]"
,20 to 30%,"Cn1c(CN2CCC(c3ccc(C(=O)N4CCC(Cn5cc(-c6cccc7c6n(C)c(=O)n7C6CCC(=O)NC6=O)cn5)CC4)cc3)CC2)cc2c(-c3ccc4[nH]ncc4c3)ccnc21 (centres unmarked) [Example 3l1, 3-(4-(1-((1-(4-(1-((4-(1H-indazol-5-yl)-1-methyl-1H-pyrrolo[2,3-b]pyridin-2-yl)methyl)piperidin-4-yl)benzoyl)piperidin-4-yl)methyl)-1H-pyrazol-4-yl)-3-methyl-2-oxo-2,3-dihydro-1H-benzo[d]imidazol-1-yl)piperidine-2,6-dione]"
3 nM,,"Cn1c(CN2CCC(c3ccc(C(=O)N4CCC(CCn5cc(-c6cccc7c6n(C)c(=O)n7C6CCC(=O)NC6=O)cn5)CC4)cc3)CC2)cc2c(-c3ccc4[nH]ncc4c3)ccnc21 (centres unmarked) [Example 3l2, 3-(4-(1-(2-(1-(4-(1-((4-(1H-indazol-5-yl)-1-methyl-1H-pyrrolo[2,3-b]pyridin-2-yl)methyl)-piperidin-4-yl)benzoyl)piperidin-4-yl)ethyl)-1H-pyrazol-4-yl)-3-methyl-2-oxo-2,3-dihydro-1H-benzo[d]-imidazol-1-yl)piperidine-2,6-dione]"
,60 to 70%,"Cn1c(CN2CCC(c3ccc(C(=O)N4CCC(CN5CCN(Cc6ccc7c(c6)oc(=O)n7C6CCC(=O)NC6=O)CC5)CC4)cc3)CC2)cc2c(-c3ccc(N)nc3)ccnc21 (centres unmarked) [Example 3n1, 3-(6-((4-((1-(4-(1-((4-(6-aminopyridin-3-yl)-1-methyl-1H-pyrrolo[2,3-b]pyridin-2-yl)methyl)piperidin-4-yl)benzoyl)piperidin-4-yl)methyl)piperazin-1-yl)methyl)-2-oxobenzo[d]oxazol-3 (2H)-yl)piperidine-2,6-dione]"
0.1 nM,,"COCc1nc2cc(-c3ccnc4c3cc(CN3CCC(c5ccc(C(=O)N(C)c6ccc(C7CCN(Cc8ccc9c(c8)oc(=O)n9C8CCC(=O)NC8=O)CC7)cc6)cc5)CC3)n4C)ccc2[nH]1 (centres unmarked) [Example 3n4, N-(4-(1-((3-(2,6-dioxopiperidin-3-yl)-2-oxo-2,3-dihydrobenzo[d]oxazol-6-yl)methyl)piperidin-4-yl)phenyl)-4-(1-((4-(2-(methoxymethyl)-1H-benzo[d]imidazol-5-yl)-1-methyl-1H-pyrrolo[2,3-b]pyridin-2-yl)methyl)piperidin-4-yl)-N-methylbenzamide]"

# The remaining lines, values behind:
SMILES,DC50,Emax
"Cc1cc(C(=O)N(C)c2ccc(C3CCN(Cc4ccc5c(c4)n(C)c(=O)n5C4CCC(=O)NC4=O)CC3)cc2)cc(F)c1C1=CCN(Cc2cc3c(-c4ccc(N)nc4)ccnc3n2C)CC1 (centres unmarked) [Example 3h39, 4-(1-((4-(6-aminopyridin-3-yl)-1-methyl-1H-pyrrolo[2,3-b]pyridin-2-yl)methyl)-1,2,3,6-tetrahydropyridin-4-yl)-N-(4-(1-((1-(2,6-dioxopiperidin-3-yl)-3-methyl-2-oxo-2,3-dihydro-1H-benzo[d]imidazol-5-yl)methyl)piperidin-4-yl)phenyl)-3-fluoro-N,5-dimethylbenzamide]",0.1 nM,
"CNc1ccc(-c2ccnc3c2cc(CN2CCC(c4c(F)cc(C(=O)N5CCC(CN6CCN(c7cc8c(cc7F)n(C7CCC(=O)NC7=O)c(=O)n8C)CC6)CC5)cc4F)CC2)n3C)cn1 (centres unmarked) [Example 3h49, 3-(5-(4-((1-(3,5-difluoro-4-(1-((1-methyl-4-(6-(methylamino)pyridin-3-yl)-1H-pyrrolo[2,3-b]pyridin-2-yl)methyl)piperidin-4-yl)benzoyl)piperidin-4-yl)methyl)piperazin-1-yl)-6-fluoro-3-methyl-2-oxo-2,3-dihydro-1H-benzo[d]imidazol-1-yl)piperidine-2,6-dione]",,< 20%
"Cn1c(CN2CCC(c3ccc(C(=O)N4CCC(N5CCN(Cc6ccc7c(c6)n(C)c(=O)n7C6CCC(=O)NC6=O)CC5)CC4)cc3)CC2)cc2c(-c3ccc4[nH]ncc4c3)ccnc21 (centres unmarked) [Example 3j1, 3-(5-((4-(1-(4-(1-((4-(1H-indazol-5-yl)-1-methyl-1H-pyrrolo[2,3-b]pyridin-2-yl)methyl)piperidin-4-yl)benzoyl)piperidin-4-yl)piperazin-1-yl)methyl)-3-methyl-2-oxo-2,3-dihydro-1H-benzo[d]imidazol-1-yl)piperidine-2,6-dione]",,20 to 30%
"Cn1c(CN2CCC(c3ccc(C(=O)N4CCC(N5CCN(Cc6cccc7c6n(C)c(=O)n7C6CCC(=O)NC6=O)CC5)CC4)cc3)CC2)cc2c(-c3ccc4[nH]ncc4c3)ccnc21 (centres unmarked) [Example 3j2, 3-(4-((4-(1-(4-(1-((4-(1H-indazol-5-yl)-1-methyl-1H-pyrrolo[2,3-b]pyridin-2-yl)methyl)piperidin-4-yl)benzoyl)piperidin-4-yl)piperazin-1-yl)methyl)-3-methyl-2-oxo-2,3-dihydro-1H-benzo[d]imidazol-1-yl)piperidine-2,6-dione]",,< 20%
"Cn1c(CN2CCC(c3ccc(C(=O)N4CCN(CC5CCN(Cc6cccc7c6n(C)c(=O)n7C6CCC(=O)NC6=O)CC5)CC4)cc3)CC2)cc2c(-c3ccc4[nH]ncc4c3)ccnc21 (centres unmarked) [Example 3k1, 3-(4-((4-((4-(4-(1-((4-(1H-indazol-5-yl)-1-methyl-1H-pyrrolo[2,3-b]pyridin-2-yl)methyl)-piperidin-4-yl)benzoyl)piperazin-1-yl)methyl)piperidin-1-yl)methyl)-3-methyl-2-oxo-2,3-dihydro-1H-benzo[d]imidazol-1-yl)piperidine-2,6-dione]",,20 to 30%
"Cn1c(CN2CCC(c3ccc(C(=O)N4CCC(Cn5cc(-c6ccc7c(c6)n(C)c(=O)n7C6CCC(=O)NC6=O)cn5)CC4)cc3)CC2)cc2c(-c3ccc4[nH]ncc4c3)ccnc21 (centres unmarked) [Example 3l3, 3-(5-(1-((1-(4-(1-((4-(1H-indazol-5-yl)-1-methyl-1H-pyrrolo[2,3-b]pyridin-2-yl)methyl)piperidin-4-yl)benzoyl)piperidin-4-yl)methyl)-1H-pyrazol-4-yl)-3-methyl-2-oxo-2,3-dihydro-1H-benzo[d]imidazol-1-yl)piperidine-2,6-dione]",,30 to 40%
"Cn1c(CN2CCC(c3ccc(C(=O)N4CCC(CCn5cc(-c6ccc7c(c6)n(C)c(=O)n7C6CCC(=O)NC6=O)cn5)CC4)cc3)CC2)cc2c(-c3ccc4[nH]ncc4c3)ccnc21 (centres unmarked) [Example 3l4, 3-(5-(1-(2-(1-(4-(1-((4-(1H-indazol-5-yl)-1-methyl-1H-pyrrolo[2,3-b]pyridin-2-yl)methyl)-piperidin-4-yl)benzoyl)piperidin-4-yl)ethyl)-1H-pyrazol-4-yl)-3-methyl-2-oxo-2,3-dihydro-1H-benzo[d]imidazol-1-yl)piperidine-2,6-dione]",2.6 nM,
"Cn1c(CN2CCC(c3ccc(C(=O)N4CCC(CN5CCN(c6ccc7c(c6)n(C)c(=O)n7C6CCC(=O)NC6=O)CC5)CC4)cc3)CC2)cc2c(-c3ccc(N)nc3)ccnc21 (centres unmarked) [Example 3m1, 3-(5-(4-((1-(4-(1-((4-(6-aminopyridin-3-yl)-1-methyl-1H-pyrrolo[2,3-b]pyridin-2-yl)methyl)-piperidin-4-yl)benzoyl)piperidin-4-yl)methyl)piperazin-1-yl)-3-methyl-2-oxo-2,3-dihydro-1H-benzo[d]imidazol-1-yl)piperidine-2,6-dione]",,40 to 50%
"Cn1c(CN2CCC(c3ccc(C(=O)N4CCC(CN5CCN(c6ccc7c(c6)n(C)c(=O)n7C6CCC(=O)NC6=O)CC5)CC4)cc3)CC2)cc2c(-c3ccc4[nH]ncc4c3)ccnc21 (centres unmarked) [Example 3m2, 3-(5-(4-((1-(4-(1-((4-(1H-indazol-5-yl)-1-methyl-1H-pyrrolo[2,3-b]pyridin-2-yl)methyl)-piperidin-4-yl)benzoyl)piperidin-4-yl)methyl)piperazin-1-yl)-3-methyl-2-oxo-2,3-dihydro-1H-benzo[d]imidazol-1-yl)piperidine-2,6-dione]",1.8 nM,
"COCc1nc2cc(-c3ccnc4c3cc(CN3CCC(c5ccc(C(=O)N6CCC(CN7CCN(Cc8ccc9c(c8)oc(=O)n9C8CCC(=O)NC8=O)CC7)CC6)cc5)CC3)n4C)ccc2[nH]1 (centres unmarked) [Example 3n2, 3-(6-((4-((1-(4-(1-((4-(2-(methoxymethyl)-1H-benzo[d]imidazol-5-yl)-1-methyl-1H-pyrrolo[2,3-b]pyridin-2-yl)methyl)piperidin-4-yl)benzoyl)piperidin-4-yl)methyl)piperazin-1-yl)methyl)-2-oxobenzo[d]-oxazol-3 (2H)-yl)piperidine-2,6-dione]",1.1 nM,
"CN(C(=O)c1ccc(C2CCN(Cc3cc4c(-c5ccc(N)nc5)ccnc4n3C)CC2)cc1)c1ccc(C2CCN(Cc3ccc4c(c3)oc(=O)n4C3CCC(=O)NC3=O)CC2)cc1 (centres unmarked) [Example 3n3, 4-(1-((4-(6-aminopyridin-3-yl)-1-methyl-1H-pyrrolo[2,3-b]pyridin-2-yl)methyl)piperidin-4-yl)-N-(4-(1-((3-(2,6-dioxopiperidin-3-yl)-2-oxo-2,3-dihydrobenzo[d]oxazol-6-yl)methyl)piperidin-4-yl)phenyl)-N-methylbenzamide]",0.1 nM,
"COCc1nc2cc(-c3ccnc4c3cc(CN3CCC(c5ccc(C(=O)N6CCC(CN7CCN(Cc8ccc9c(c8)n(C8CCC(=O)NC8=O)c(=O)n9C)CC7)CC6)cc5)CC3)n4C)ccc2[nH]1 (centres unmarked) [Example 3o1, 3-(6-((4-((1-(4-(1-((4-(2-(methoxymethyl)-1H-benzo[d]imidazol-5-yl)-1-methyl-1H-pyrrolo[2,3-b]pyridin-2-yl)methyl)piperidin-4-yl)benzoyl)piperidin-4-yl)methyl)piperazin-1-yl)methyl)-3-methyl-2-oxo-2,3-dihydro-1H-benzo[d]imidazol-1-yl)piperidine-2,6-dione]",,< 20%
